Reference: US11208412B2 (DAEGU-GYEONGBUK MEDICAL INNOVATION FOUNDATION, priority 2017, dated 2021)

Key:
Experiment in all cases: Kinase selectivity, DiscoverX scanMAX Kinase assay panel (% control)
Format in all cases: binding
[1] = biological target: T1, kinases of the scanMAX Kinase assay panel (Homo sapiens, UniProt P00533, DEL746-750); conditions: EGFR(E746-A750de1); 1 uM
T1 construct: purchased DiscoverX Co. (contract measurement) scanMAX Kinase assay panel
Procedure, shortened: (§1)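 Read-out is % control, normalised so a positive-control compound sits at 0% and DMSO at 100%: (test − positive)/(negative − positive)×100. Each kinase received the compound at 1 uM in DMSO. A value below 35% counts as activity.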

[2] = biological target: T2, kinases of the scanMAX Kinase assay panel (Homo sapiens, UniProt P04626); conditions: ERBB2; 1 uM
T2 construct: purchased DiscoverX Co. (contract measurement) scanMAX Kinase assay panel
Procedure, shortened: as §1

[3] = biological target: T3, kinases of the scanMAX Kinase assay panel (Homo sapiens, UniProt P51813); conditions: BMX; 1 uM
T3 construct: purchased DiscoverX Co. (contract measurement) scanMAX Kinase assay panel
T3 sequence (P51813 1-675): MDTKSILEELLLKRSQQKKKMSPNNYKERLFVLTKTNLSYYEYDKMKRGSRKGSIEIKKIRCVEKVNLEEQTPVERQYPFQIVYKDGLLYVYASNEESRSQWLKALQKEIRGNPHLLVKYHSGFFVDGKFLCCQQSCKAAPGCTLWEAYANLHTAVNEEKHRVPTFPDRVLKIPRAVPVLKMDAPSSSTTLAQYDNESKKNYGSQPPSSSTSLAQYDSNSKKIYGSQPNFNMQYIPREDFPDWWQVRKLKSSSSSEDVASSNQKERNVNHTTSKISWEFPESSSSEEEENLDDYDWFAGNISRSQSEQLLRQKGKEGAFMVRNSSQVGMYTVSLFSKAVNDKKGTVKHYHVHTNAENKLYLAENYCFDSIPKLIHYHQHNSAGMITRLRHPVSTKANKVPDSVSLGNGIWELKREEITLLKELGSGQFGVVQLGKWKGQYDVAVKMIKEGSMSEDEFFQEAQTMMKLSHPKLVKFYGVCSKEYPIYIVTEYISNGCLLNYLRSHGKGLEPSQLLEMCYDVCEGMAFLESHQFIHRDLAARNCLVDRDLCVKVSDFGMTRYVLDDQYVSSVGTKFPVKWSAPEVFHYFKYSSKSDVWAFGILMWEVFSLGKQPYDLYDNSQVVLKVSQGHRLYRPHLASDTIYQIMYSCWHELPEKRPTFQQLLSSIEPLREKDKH
Procedure, shortened: as §1

[4] = biological target: T4, kinases of the scanMAX Kinase assay panel (Homo sapiens, UniProt P11309); conditions: PIM1; 1 uM
T4 construct: purchased DiscoverX Co. (contract measurement) scanMAX Kinase assay panel
Procedure, shortened: as §1

[5] = biological target: T5, kinases of the scanMAX Kinase assay panel (Homo sapiens, UniProt O75460); conditions: ERN1; 1 uM
T5 construct: purchased DiscoverX Co. (contract measurement) scanMAX Kinase assay panel
Procedure, shortened: as §1

[6] = biological target: T6, kinases of the scanMAX Kinase assay panel (Homo sapiens, UniProt Q9UEE5); conditions: DRAK1; 1 uM
T6 construct: purchased DiscoverX Co. (contract measurement) scanMAX Kinase assay panel
T6 sequence (Q9UEE5 1-414): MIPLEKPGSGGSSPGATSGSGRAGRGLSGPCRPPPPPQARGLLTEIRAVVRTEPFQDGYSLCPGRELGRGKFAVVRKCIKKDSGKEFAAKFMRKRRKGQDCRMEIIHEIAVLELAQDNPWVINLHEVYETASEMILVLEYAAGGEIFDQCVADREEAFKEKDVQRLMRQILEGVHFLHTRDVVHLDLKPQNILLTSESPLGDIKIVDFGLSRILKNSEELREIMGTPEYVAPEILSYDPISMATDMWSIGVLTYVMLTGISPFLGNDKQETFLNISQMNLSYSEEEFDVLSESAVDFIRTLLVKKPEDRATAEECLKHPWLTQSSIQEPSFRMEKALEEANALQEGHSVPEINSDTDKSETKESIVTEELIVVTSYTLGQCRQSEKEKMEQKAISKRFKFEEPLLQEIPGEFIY
Procedure, shortened: as §1

[7] = biological target: T7, kinases of the scanMAX Kinase assay panel (Homo sapiens, UniProt Q8NEB9); conditions: kinase VPS34; 1 uM in DMSO
T7 construct: purchased DiscoverX Co. (contract measurement) scanMAX Kinase assay panel
Procedure, shortened: as §1

[8] = biological target: T8, kinases of the scanMAX Kinase assay panel (Homo sapiens, UniProt Q07002); conditions: PCTK3; 1 uM
T8 construct: purchased DiscoverX Co. (contract measurement) scanMAX Kinase assay panel
Procedure, shortened: as §1

[9] = biological target: T9, kinases of the scanMAX Kinase assay panel (Homo sapiens, UniProt O96017); conditions: CHEK2; 1 uM
T9 construct: purchased DiscoverX Co. (contract measurement) scanMAX Kinase assay panel
Procedure, shortened: as §1

[10] = biological target: T10, kinases of the scanMAX Kinase assay panel (Homo sapiens, UniProt P49759); conditions: CLK1; 1 uM
T10 construct: purchased DiscoverX Co. (contract measurement) scanMAX Kinase assay panel
Procedure, shortened: as §1

[11] = biological target: T11, kinases of the scanMAX Kinase assay panel (Homo sapiens, UniProt P21860); conditions: ERBB3; 1 uM
T11 construct: purchased DiscoverX Co. (contract measurement) scanMAX Kinase assay panel
Procedure, shortened: as §1

[12] = biological target: T12, kinases of the scanMAX Kinase assay panel (Homo sapiens, UniProt Q04912); conditions: MST1R; 1 uM
T12 construct: purchased DiscoverX Co. (contract measurement) scanMAX Kinase assay panel
Procedure, shortened: as §1

[13] = biological target: T13, kinases of the scanMAX Kinase assay panel (Homo sapiens, UniProt O14730); conditions: kinase RIOK3; 1 uM in DMSO
T13 construct: purchased DiscoverX Co. (contract measurement) scanMAX Kinase assay panel
T13 sequence (O14730 1-519): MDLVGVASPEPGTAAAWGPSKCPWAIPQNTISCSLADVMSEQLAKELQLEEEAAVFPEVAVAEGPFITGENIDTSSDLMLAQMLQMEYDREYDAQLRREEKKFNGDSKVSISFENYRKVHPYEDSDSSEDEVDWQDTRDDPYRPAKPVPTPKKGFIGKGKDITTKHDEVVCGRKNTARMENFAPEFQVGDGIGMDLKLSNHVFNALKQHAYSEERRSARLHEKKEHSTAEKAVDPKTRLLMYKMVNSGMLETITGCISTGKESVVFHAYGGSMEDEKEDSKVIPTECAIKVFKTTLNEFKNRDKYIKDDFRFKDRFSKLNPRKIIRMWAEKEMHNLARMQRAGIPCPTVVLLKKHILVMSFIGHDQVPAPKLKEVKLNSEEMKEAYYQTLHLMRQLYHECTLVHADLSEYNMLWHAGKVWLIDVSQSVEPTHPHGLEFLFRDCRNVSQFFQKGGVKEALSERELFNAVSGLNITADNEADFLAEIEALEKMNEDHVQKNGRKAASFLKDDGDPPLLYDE
Procedure, shortened: as §1

T8 sequence (Q07002 whole entry): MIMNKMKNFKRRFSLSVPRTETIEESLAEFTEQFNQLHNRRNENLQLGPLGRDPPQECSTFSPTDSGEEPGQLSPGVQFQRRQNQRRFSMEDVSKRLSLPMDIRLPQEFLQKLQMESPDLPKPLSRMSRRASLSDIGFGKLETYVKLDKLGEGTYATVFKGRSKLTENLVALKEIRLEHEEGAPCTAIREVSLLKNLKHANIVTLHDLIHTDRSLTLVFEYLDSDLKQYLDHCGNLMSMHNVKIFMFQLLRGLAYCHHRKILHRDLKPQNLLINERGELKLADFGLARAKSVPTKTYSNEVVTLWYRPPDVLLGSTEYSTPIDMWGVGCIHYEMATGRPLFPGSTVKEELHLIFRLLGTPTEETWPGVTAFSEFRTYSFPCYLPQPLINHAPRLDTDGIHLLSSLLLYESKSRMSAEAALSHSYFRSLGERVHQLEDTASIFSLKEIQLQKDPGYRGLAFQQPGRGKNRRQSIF
T11 sequence (P21860 20-1342): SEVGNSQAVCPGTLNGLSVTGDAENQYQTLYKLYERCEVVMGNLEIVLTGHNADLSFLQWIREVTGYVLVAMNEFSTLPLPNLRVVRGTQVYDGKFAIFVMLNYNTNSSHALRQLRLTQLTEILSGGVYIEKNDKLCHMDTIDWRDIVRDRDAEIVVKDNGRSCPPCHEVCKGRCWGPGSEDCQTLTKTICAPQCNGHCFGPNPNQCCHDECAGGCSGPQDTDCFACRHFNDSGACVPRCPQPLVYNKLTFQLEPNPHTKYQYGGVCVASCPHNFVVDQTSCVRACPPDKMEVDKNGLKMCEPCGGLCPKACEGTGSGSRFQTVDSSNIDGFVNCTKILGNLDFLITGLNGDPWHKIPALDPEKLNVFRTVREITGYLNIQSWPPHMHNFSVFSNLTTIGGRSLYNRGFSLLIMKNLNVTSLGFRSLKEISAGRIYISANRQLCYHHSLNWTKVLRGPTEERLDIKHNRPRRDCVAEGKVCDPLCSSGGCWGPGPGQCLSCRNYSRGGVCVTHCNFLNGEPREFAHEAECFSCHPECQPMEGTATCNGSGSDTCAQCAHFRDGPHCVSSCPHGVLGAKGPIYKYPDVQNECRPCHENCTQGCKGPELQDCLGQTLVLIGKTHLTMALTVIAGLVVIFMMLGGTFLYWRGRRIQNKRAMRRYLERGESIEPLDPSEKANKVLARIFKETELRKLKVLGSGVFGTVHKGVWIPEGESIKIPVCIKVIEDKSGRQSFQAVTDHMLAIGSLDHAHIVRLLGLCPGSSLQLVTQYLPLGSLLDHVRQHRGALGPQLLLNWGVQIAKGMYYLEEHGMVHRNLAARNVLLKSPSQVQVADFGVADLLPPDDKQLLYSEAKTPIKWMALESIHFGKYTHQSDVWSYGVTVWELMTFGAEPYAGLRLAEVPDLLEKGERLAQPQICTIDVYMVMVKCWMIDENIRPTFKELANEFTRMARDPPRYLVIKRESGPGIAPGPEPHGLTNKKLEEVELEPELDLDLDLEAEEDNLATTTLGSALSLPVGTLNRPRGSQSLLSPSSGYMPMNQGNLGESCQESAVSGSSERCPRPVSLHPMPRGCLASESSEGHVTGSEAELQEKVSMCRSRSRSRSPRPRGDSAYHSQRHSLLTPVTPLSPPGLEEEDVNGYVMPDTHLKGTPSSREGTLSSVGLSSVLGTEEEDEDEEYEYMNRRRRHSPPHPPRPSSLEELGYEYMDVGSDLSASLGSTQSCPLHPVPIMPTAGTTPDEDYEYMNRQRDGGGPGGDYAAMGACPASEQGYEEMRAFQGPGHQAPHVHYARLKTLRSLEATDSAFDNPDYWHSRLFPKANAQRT
T4 sequence (P11309 whole entry): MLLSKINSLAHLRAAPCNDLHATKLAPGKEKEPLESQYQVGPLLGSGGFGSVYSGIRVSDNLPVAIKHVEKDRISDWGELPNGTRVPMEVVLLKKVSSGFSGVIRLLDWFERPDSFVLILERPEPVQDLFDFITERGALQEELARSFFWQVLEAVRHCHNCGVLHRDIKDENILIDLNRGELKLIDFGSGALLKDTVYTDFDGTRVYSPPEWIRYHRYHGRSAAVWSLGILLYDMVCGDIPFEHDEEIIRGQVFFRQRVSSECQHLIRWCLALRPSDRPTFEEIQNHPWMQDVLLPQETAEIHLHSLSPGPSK
T1 sequence (P00533 with tags, fused parts or gaps DEL746-750): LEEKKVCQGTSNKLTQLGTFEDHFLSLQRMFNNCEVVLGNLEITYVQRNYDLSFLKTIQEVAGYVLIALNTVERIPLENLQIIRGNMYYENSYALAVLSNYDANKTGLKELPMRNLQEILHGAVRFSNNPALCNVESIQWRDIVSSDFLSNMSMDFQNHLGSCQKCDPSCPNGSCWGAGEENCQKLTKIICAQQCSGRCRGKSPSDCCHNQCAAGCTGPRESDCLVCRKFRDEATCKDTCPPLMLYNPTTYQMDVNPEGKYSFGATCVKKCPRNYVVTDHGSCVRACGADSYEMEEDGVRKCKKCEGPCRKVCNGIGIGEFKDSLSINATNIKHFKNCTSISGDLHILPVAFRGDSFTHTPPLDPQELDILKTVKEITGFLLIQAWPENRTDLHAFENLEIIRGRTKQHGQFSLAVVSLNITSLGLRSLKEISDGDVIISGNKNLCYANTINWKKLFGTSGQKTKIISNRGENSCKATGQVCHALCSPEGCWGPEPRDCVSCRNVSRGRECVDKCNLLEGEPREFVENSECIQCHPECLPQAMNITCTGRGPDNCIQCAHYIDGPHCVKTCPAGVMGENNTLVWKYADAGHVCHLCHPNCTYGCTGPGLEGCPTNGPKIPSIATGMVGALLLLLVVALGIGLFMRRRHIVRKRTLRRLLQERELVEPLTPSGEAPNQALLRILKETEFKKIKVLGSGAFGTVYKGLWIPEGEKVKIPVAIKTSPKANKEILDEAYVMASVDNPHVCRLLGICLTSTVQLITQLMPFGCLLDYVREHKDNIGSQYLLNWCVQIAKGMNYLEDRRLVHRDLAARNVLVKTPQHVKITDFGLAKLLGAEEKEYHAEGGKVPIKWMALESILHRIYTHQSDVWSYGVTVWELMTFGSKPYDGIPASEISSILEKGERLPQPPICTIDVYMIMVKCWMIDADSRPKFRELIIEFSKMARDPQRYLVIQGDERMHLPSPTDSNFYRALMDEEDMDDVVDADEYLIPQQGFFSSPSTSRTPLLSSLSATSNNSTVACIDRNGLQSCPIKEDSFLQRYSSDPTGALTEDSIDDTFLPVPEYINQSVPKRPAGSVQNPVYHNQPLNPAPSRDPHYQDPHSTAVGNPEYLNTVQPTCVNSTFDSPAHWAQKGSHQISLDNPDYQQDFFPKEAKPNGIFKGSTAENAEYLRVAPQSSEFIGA
T2 sequence (P04626 23-1255): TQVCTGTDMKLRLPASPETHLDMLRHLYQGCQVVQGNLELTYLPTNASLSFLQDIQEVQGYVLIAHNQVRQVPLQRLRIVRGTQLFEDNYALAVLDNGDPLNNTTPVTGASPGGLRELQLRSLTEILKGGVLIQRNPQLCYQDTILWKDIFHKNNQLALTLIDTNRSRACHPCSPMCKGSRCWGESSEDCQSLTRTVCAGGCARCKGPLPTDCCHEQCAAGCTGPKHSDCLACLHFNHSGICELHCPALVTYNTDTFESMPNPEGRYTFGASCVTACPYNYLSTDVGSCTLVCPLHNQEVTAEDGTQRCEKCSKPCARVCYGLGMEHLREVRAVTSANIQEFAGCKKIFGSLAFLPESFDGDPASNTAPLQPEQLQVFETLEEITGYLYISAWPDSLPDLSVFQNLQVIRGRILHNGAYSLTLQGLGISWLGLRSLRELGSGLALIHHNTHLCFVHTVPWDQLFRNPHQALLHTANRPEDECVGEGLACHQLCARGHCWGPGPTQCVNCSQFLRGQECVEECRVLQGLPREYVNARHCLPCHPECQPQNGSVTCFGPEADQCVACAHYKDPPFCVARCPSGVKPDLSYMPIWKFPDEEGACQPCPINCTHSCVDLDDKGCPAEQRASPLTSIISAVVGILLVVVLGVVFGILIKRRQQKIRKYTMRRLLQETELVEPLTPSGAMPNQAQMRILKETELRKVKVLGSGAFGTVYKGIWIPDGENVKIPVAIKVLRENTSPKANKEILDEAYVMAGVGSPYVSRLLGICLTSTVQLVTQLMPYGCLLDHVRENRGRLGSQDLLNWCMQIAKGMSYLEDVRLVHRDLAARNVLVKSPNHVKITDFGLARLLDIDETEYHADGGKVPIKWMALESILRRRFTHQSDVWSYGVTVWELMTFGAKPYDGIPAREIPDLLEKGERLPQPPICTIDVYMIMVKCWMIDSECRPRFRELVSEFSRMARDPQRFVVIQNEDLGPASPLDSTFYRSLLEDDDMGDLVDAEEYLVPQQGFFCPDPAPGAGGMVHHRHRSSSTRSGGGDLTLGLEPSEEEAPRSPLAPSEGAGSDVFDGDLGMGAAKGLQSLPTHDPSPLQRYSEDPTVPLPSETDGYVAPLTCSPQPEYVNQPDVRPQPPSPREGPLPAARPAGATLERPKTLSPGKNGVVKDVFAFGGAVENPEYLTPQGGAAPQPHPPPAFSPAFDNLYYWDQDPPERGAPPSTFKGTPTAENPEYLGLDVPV
T9 sequence (O96017 whole entry): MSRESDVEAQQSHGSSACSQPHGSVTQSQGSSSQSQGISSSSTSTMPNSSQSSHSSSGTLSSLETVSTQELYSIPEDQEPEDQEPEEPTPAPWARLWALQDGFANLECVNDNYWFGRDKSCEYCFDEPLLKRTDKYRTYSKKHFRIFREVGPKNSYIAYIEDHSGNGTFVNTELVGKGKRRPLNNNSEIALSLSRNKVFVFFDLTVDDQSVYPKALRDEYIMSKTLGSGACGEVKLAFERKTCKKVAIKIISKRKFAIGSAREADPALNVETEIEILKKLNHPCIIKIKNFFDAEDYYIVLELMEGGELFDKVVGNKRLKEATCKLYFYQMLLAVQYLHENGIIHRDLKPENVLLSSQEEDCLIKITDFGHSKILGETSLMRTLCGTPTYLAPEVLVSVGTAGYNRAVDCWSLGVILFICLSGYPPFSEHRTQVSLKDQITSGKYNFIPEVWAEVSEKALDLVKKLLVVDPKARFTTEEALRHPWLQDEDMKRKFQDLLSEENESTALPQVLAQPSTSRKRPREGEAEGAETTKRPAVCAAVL

**Q.** Which results are given for `CCNc1nc(Nc2ccc(C(=O)N3CCC(N4CCOCC4)CC3)cc2OC)nc2[nH]cc(C(F)(F)F)c12` [Example 104, (4-((4-(ethylamino)-5-(trifluoromethyl)-7H-pyrrolo[2,3-d]pyrimidine-2-yl)amino)-3-methoxyphenyl)(4-morpholinopiperidine-1-yl)methanone]?
**A.** remaining binding at 1 µM [1]: 100%; remaining binding at 1 µM [2]: 100%; remaining binding at 1 µM [3]: 94%; remaining binding at 1 µM [4]: 80%; remaining binding at 1 µM [5]: 83%; remaining binding at 1 µM [6]: 49%; remaining binding at 1 µM [7]: 78%; remaining binding at 1 µM [8]: 94%; remaining binding at 1 µM [9]: 12%; remaining binding at 1 µM [10]: 0.15%; remaining binding at 1 µM [11]: 100%; remaining binding at 1 µM [12]: 95%; remaining binding at 1 µM [13]: 100%

**Q.** Which results are given for `CC1(Nc2nc(Nc3cnn([C@H]4CCN(C5COC5)C[C@@H]4F)c3Cl)nc3[nH]cc(C#N)c23)CC1` [Example 52, 2-((5-chloro-1-((3S,4S)-3-fluoro-1-(oxetane-3-yl)piperidine-4-yl)-1H-pyrazole-4-yl)amino)((1-methylcyclopropyl)amino)-7H-pyrrolo[2,3-d]pyrimidine-5-carbonitrile]?
**A.** remaining binding at 1 µM [1]: 59%; remaining binding at 1 µM [2]: 100%; remaining binding at 1 µM [3]: 39%; remaining binding at 1 µM [4]: 57%; remaining binding at 1 µM [5]: 28%; remaining binding at 1 µM [6]: 0.3%; remaining binding at 1 µM [7]: 100%; remaining binding at 1 µM [8]: 81%; remaining binding at 1 µM [9]: 0%; remaining binding at 1 µM [10]: 0.6%; remaining binding at 1 µM [11]: 100%; remaining binding at 1 µM [12]: 78%; remaining binding at 1 µM [13]: 0.4%

**Q.** `CNc1nc(Nc2ccc(C(=O)N3CCOCC3)cc2OC)nc2[nH]cc(C#N)c12` [Example 1, 2-((2-methoxy-4-(morpholine-4-carbonyl)phenyl)amino)-4-(methylamino)-7H-pyrrolo[2,3-d]pyrimidine-5-carbonitrile] was tested. Which remaining binding at 1 µM [1] did it give?
**A.** The remaining binding at 1 µM was 97%.

**Q.** And the remaining binding at 1 µM [2]?
**A.** The remaining binding at 1 µM was 79%.

**Q.** And the remaining binding at 1 µM [3]?
**A.** The remaining binding at 1 µM was 93%.

**Q.** What about the remaining binding at 1 µM [4] of the same compound?
**A.** Its remaining binding at 1 µM is 85%.

**Q.** What about the remaining binding at 1 µM [5] of the same compound?
**A.** Its remaining binding at 1 µM is 57%.

**Q.** And the remaining binding at 1 µM [6]?
**A.** Its remaining binding at 1 µM is 37%.

**Q.** What about the remaining binding at 1 µM [7] of the same compound?
**A.** Its remaining binding at 1 µM is 84%.

**Q.** What about the remaining binding at 1 µM [8] of the same compound?
**A.** The remaining binding at 1 µM was 96%.

**Q.** What about the remaining binding at 1 µM [9] of the same compound?
**A.** The remaining binding at 1 µM was 7.7%.

**Q.** And the remaining binding at 1 µM [10]?
**A.** Its remaining binding at 1 µM is 1.8%.

**Q.** And the remaining binding at 1 µM [11]?
**A.** Its remaining binding at 1 µM is 68%.

**Q.** And the remaining binding at 1 µM [12]?
**A.** The remaining binding at 1 µM was 88%.

**Q.** And the remaining binding at 1 µM [13]?
**A.** Its remaining binding at 1 µM is 97%.
